Test [1] deals with KATO-III cell line (FGFR2 amplification). Put plainly: Cancer cell line cell viability assay (Cell Titer-Glo), 72 hr. Conditions: Homo sapiens, KATO III. The class given is cell-based. The method, boiled down:
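Cells seeded at 5,000-20,000/well, incubated overnight, then treated with a 9-dose, 4-fold dilution series from 3 μM in triplicate at 37° C, 5% CO2. Viability read by Cell Titer-Glo 2.0 luminescence as percent of DMSO control; IC50 from 4-parameter variable-slope sigmoidal fit.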
On the technique in general: Cellular ATP, detected with luciferase, serves as a proxy for viable cell number.

The subject of test [2] is RT112/84 cell line (FGFR3-fusion). The test is described as above. Type of test: cell-based. The note with it: Homo sapiens, RT112/84, RT112/84 cell line (FGFR3-fusion). The gist of the method:
(§1)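 5,000-20,000 cells/well o/n; cpd 9-pt 4x dil from 3 μM, n=3; 37° C/5% CO2; CTG 2.0 lumi; % DMSO ctrl; 4PL IC50.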

For test [3], the system named is KG-1 cell line (FGFR 1-fusion). Described as above. The note with it: Homo sapiens, KG-1, KG-1 cell line (FGFR1-fusion). Type of test: cell-based. The method, boiled down:
as §1

Another test addresses T1, FGFR1 (Homo sapiens, UniProt P11362).
T1 construct: made in house; host or cells: E. coli (BL21-derived), T7 phage
Put plainly: Kinase binding assay (kinase-tagged T7 phage, affinity beads, qPCR), Kd. The note with it: read-out: FGFR1 (Kd nM). The method, boiled down: (§2)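 Readout was qPCR of kinase eluted from ligand-coated affinity beads after competition with test compound. Kinases were expressed as T7 phage fusions in E. coli. Binding constants were derived by non-linear least-squares Hill fitting, Hill slope −1.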
In general terms: Quantitative PCR measures a nucleic acid by following its amplification.

The next test addresses T2, FGFR3 (Homo sapiens, UniProt P22607).
T2 construct: made in house; host or cells: E. coli (BL21-derived), T7 phage
The test is described as above. Conditions: read-out: FGFR3 (Kd nM). The method, boiled down:
as §2

Test [4] relates to MDA-MB-453 cell line (FGFR4-Y367C). Nature of the test: Cancer cell line cell viability assay (Cell Titer-Glo), 120 hr. Type of test: cell-based. The note with it: Homo sapiens. The gist of the method: as §1

Where only a bound is given, the exact number is not on record here.

T2 sequence (P22607 23-806): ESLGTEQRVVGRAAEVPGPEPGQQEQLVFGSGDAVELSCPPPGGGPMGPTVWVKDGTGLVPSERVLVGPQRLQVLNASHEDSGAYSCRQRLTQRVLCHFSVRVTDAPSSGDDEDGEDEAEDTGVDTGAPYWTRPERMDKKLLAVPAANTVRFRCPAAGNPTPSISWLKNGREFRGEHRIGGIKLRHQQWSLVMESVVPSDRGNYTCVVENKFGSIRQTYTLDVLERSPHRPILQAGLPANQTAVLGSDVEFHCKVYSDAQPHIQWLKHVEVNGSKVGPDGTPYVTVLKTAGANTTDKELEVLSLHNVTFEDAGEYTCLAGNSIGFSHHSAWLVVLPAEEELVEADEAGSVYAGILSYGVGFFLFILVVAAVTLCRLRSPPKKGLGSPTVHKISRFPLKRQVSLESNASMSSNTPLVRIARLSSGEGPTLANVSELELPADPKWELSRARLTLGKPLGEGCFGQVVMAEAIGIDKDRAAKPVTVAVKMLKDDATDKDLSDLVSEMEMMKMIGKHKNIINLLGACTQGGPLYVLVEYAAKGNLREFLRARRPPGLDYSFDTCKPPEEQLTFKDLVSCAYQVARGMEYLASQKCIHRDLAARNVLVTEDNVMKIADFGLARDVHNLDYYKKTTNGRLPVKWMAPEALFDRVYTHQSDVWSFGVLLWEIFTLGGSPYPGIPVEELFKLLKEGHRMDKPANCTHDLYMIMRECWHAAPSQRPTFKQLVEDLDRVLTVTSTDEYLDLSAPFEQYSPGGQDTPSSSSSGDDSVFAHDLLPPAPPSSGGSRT
T1 sequence (P11362 22-822): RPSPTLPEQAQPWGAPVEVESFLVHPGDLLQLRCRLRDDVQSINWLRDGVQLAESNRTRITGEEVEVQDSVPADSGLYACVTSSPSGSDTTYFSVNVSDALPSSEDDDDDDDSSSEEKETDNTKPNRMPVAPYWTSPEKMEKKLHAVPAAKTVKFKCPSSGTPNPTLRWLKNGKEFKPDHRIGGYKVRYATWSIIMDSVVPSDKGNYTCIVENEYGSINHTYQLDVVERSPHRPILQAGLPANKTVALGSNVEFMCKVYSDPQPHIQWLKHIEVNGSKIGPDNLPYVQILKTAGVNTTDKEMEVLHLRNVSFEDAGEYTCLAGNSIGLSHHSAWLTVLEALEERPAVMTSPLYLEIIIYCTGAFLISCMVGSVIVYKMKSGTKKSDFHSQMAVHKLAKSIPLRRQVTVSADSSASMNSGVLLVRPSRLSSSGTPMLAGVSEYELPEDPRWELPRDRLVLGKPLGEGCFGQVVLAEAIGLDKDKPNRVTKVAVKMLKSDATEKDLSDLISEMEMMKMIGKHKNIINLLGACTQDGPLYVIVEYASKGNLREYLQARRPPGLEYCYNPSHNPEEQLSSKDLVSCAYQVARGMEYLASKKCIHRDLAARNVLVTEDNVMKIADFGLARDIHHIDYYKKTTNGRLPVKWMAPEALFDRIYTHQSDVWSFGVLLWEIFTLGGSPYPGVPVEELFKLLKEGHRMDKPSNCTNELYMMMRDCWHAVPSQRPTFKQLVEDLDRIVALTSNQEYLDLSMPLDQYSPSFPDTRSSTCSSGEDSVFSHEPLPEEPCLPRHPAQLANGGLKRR

In general, IC50 refers to the midpoint of a concentration-inhibition curve. A low value points to greater potency in that assay. What is called Kd is the constant that tells how readily two partners part at equilibrium. Take `CC(C)C1(N)CN(c2ncc(-c3n[nH]c4ccc(O[C@H](C)c5c(Cl)cncc5Cl)cc34)cc2F)C1` [Example 255, (R)-1-(5-(5-(1-(3,5-dichloropyridin-4-yl)ethoxy)-1H-indazol-3-yl)-3-fluoropyridin-2-yl)-3-isopropylazetidin-3-amine]: the IC50 was in the range of 0.0001 to 0.05 µM in test [1], 0.0001 to 0.05 µM in test [2], 0.05 to 0.2 µM in test [3] and 0.05 to 0.2 µM in test [4]. Besides, the Kd at FGFR1 and at FGFR3 was 1 to 50 nM throughout.
`C[C@@H](Oc1ccc2[nH]nc(-c3cnc(N4CC(N)(C5CCC5)C4)c(F)c3)c2c1)c1c(Cl)cncc1Cl` [Example 256, (R)-3-cyclobutyl-1-(5-(5-(1-(3,5-dichloropyridin-4-yl)ethoxy)-1H-indazol-3-yl)-3-fluoropyridin-2-yl)azetidin-3-amine]: the IC50 was 0.05 to 0.2 µM in test [1], 0.0001 to 0.05 µM in test [2], 0.05 to 0.2 µM in test [3] and 0.05 to 0.2 µM in test [4]. Also, the equilibrium dissociation constant (Kd) on FGFR1 and at FGFR3 was 1 to 50 nM each time.
For the molecule `CC(C)CC1(N)CN(c2ncc(-c3n[nH]c4ccc(O[C@H](C)c5c(Cl)cncc5Cl)cc34)cc2F)C1` [Example 258, (R)-1-(5-(5-(1-(3,5-dichloropyridin-4-yl)ethoxy)-1H-indazol-3-yl)-3-fluoropyridin-2-yl)-3-isobutylazetidin-3-amine], the IC50 in test [1] was in the range of 0.05 to 0.2 µM; in test [2] it was 0.0001 to 0.05 µM; in test [3], 0.2 to 1 µM; in test [4], 0.2 to 1 µM. Further, the equilibrium dissociation constant (Kd) on FGFR1 and on FGFR3 was 1 to 50 nM in each case.
Turning to `C[C@@H](Oc1ccc2[nH]nc(-c3cnc(N4CC(N)(CCO)C4)c(F)c3)c2c1)c1c(Cl)cncc1Cl` [Example 259, (R)-2-(3-amino-1-(5-(5-(1-(3,5-dichloropyridin-4-yl)ethoxy)-1H-indazol-3-yl)-3-fluoropyridin-2-yl)azetidin-3-yl)ethanol], the concentration for half-maximal inhibition (IC50) is 0.0001 to 0.05 µM in test [1], 0.0001 to 0.05 µM in test [2], 0.05 to 0.2 µM in test [3] and 0.0001 to 0.05 µM in test [4]. For the same molecule, the Kd at FGFR1 and at FGFR3 was 1 to 50 nM in each case.
On to `CCC1(N)CN(c2ncc(-c3n[nH]c4ccc(O[C@H](C)c5c(Cl)cncc5Cl)cc34)cc2F)C1` [Example 260, 1-[5-[5-[(1R)-1-(3,5-dichloro-4-pyridyl)ethoxy]-1H-indazol-3-yl]-3-fluoro-2-pyridyl]-3-ethyl-azetidin-3-amine], for which the half-maximal inhibitory concentration (IC50) in test [1] fell in the range of 0.05 to 0.2 µM; in test [2] it was 0.0001 to 0.05 µM; in test [3] it was 0.05 to 0.2 µM; in test [4], 0.0001 to 0.05 µM. Further, the Kd at FGFR1 and at FGFR3 was 1 to 50 nM each time.
Regarding `C[C@@H](Oc1ccc2[nH]nc(-c3cnc(N4CC(C)(OCCN5CCCC5)C4)c(F)c3)c2c1)c1c(Cl)cncc1Cl` [Example 261, (R)-5-(1-(3,5-dichloropyridin-4-yl)ethoxy)-3-(5-fluoro-6-(3-methyl-3-(2-(pyrrolidin-1-yl)ethoxy)azetidin-1-yl)pyridin-3-yl)-1H-indazole], the IC50 was 0.0001 to 0.05 µM in test [1], 0.0001 to 0.05 µM in test [2], 0.05 to 0.2 µM in test [3] and 0.05 to 0.2 µM in test [4]. The Kd on FGFR1 and at FGFR3 was 1 to 50 nM in each case.
As to `C[C@@H](Oc1ccc2[nH]nc(-c3cnc(N4CC(N)(CC5CC5)C4)c(F)c3)c2c1)c1c(Cl)cncc1Cl` [Example 262, (R)-3-(cyclopropylmethyl)-1-(5-(5-(1-(3,5-dichloropyridin-4-yl)ethoxy)-1H-indazol-3-yl)-3-fluoropyridin-2-yl)azetidin-3-amine], the IC50 in test [1] lay in the range of 0.05 to 0.2 µM; in test [2] it was 0.0001 to 0.05 µM; in test [3], 0.05 to 0.2 µM; in test [4] it was 0.2 to 1 µM. Further, the equilibrium dissociation constant (Kd) at FGFR1 and on FGFR3 was 1 to 50 nM throughout.
For the molecule `C=CCC1(N)CN(c2ncc(-c3n[nH]c4ccc(O[C@H](C)c5c(Cl)cncc5Cl)cc34)cc2F)C1` [Example 264, (R)-3-ally1-1-(5-(5-(1-(3,5-dichloropyridin-4-yl)ethoxy)-1H-indazol-3-yl)-3-fluoropyridin-2-yl)azetidin-3-amine], the IC50 in test [1] fell in the range of 0.05 to 0.2 µM; in test [2], 0.0001 to 0.05 µM; in test [3], 0.05 to 0.2 µM; in test [4], 0.05 to 0.2 µM. Also, the Kd on FGFR1 and on FGFR3 was 1 to 50 nM throughout.
For `C[C@@H](Oc1ccc2[nH]nc(-c3cnc(N4CC(N)(CC(C)(C)O)C4)c(F)c3)c2c1)c1c(Cl)cncc1Cl` [Example 266, (R)-1-(3-amino-1-(5-(5-(1-(3,5-dichloropyridin-4-yl)ethoxy)-1H-indazol-3-yl)-3-fluoropyridin-2-yl)azetidin-3-yl)-2-methylpropan-2-ol], the half-inhibitory concentration (IC50) in test [1] was 0.05 to 0.2 µM; in test [2], 0.0001 to 0.05 µM; in test [3] it was 0.2 to 1 µM; in test [4], above 1 µM. The equilibrium dissociation constant (Kd) at FGFR1 and on FGFR3 was 1 to 50 nM each time.
On to `C[C@@H](Oc1ccc2[nH]nc(-c3ccc(N4CC(N)(CCO)C4)nn3)c2c1)c1c(Cl)cncc1Cl` [Example 267, (R)-2-(3-amino-1-(6-(5-(1-(3,5-dichloropyridin-4-yl)ethoxy)-1H-indazol-3-yl)pyridazin-3-yl)azetidin-3-yl)ethanol], for which the IC50 in test [1] is 0.05 to 0.2 µM; in test [2] it was 0.0001 to 0.05 µM; in test [3], above 1 µM; in test [4], 0.2 to 1 µM. Moreover, the dissociation constant Kd on FGFR1 and on FGFR3 was 1 to 50 nM throughout.
With `C[C@@H](Oc1ccc2[nH]nc(-c3ccc(N4CC(C)(OCCN5CCCC5)C4)nn3)c2c1)c1c(Cl)cncc1Cl` [Example 269, (R)-5-(1-(3,5-dichloropyridin-4-yl)ethoxy)-3-(6-(3-methyl-3-(2-(pyrrolidin-1-yl)ethoxy)azetidin-1-yl)pyridazin-3-yl)-1H-indazole], the IC50 is 0.0001 to 0.05 µM in test [1], 0.0001 to 0.05 µM in test [2], 0.05 to 0.2 µM in test [3] and 0.2 to 1 µM in test [4]. Moreover, the dissociation constant Kd at FGFR1 and at FGFR3 was 1 to 50 nM throughout.
For the molecule `C[C@@H](Oc1ccc2[nH]nc(-c3cnc(N4CC(N)(CCS(C)(=O)=O)C4)c(F)c3)c2c1)c1c(Cl)cncc1Cl` [Example 270, (R)-1-(5-(5-(1-(3,5-dichloropyridin-4-yl)ethoxy)-1H-indazol-3-yl)-3-fluoropyridin-2-yl)-3-(2-(methylsulfonyl)ethyl)azetidin-3-amine], the 50% inhibitory concentration (IC50) in test [1] was in the range of 0.0001 to 0.05 µM; in test [2], 0.0001 to 0.05 µM; in test [3] it was 0.05 to 0.2 µM; in test [4], 0.0001 to 0.05 µM. In addition, the Kd at FGFR1 and at FGFR3 was 1 to 50 nM throughout.
For `CC(C)=CCC1(N)CN(c2ncc(-c3n[nH]c4ccc(O[C@H](C)c5c(Cl)cncc5Cl)cc34)cc2F)C1` [Example 271, (R)-1-(5-(5-(1-(3,5-dichloropyridin-4-yl)ethoxy)-1H-indazol-3-yl)-3-fluoropyridin-2-yl)-3-(3-methylbut-2-en-1-yl)azetidin-3-amine], the half-maximal inhibitory concentration (IC50) in test [1] is 0.05 to 0.2 µM; in test [2], 0.0001 to 0.05 µM; in test [3] it was 0.2 to 1 µM; in test [4] it was 0.0001 to 0.05 µM. In addition, the dissociation constant Kd on FGFR1 and at FGFR3 was 1 to 50 nM each time.
Consider `C[C@@H](Oc1ccc2[nH]nc(-c3ccc(N4CC(N)(CC5CC5)C4)nn3)c2c1)c1c(Cl)cncc1Cl` [Example 272, (R)-3-(cyclopropylmethyl)-1-(6-(5-(1-(3,5-dichloropyridin-4-yl)ethoxy)-1H-indazol-3-yl)pyridazin-3-yl)azetidin-3-amine], for which the IC50 is 0.05 to 0.2 µM in test [1], 0.0001 to 0.05 µM in test [2], 0.05 to 0.2 µM in test [3] and 0.2 to 1 µM in test [4]. Moreover, the dissociation constant (Kd) at FGFR1 and on FGFR3 was 1 to 50 nM in each case.
As for `COCCC1(N)CN(c2ncc(-c3n[nH]c4ccc(O[C@H](C)c5c(Cl)cncc5Cl)cc34)cc2F)C1` [Example 273, (R)-1-(5-(5-(1-(3,5-dichloropyridin-4-yl)ethoxy)-1H-indazol-3-yl)-3-fluoropyridin-2-yl)-3-(2-methoxy-ethyl)azetidin-3-amine], the IC50 in test [1], in test [2], in test [3] and in test [4] was 0.0001 to 0.05 µM throughout. In addition, the Kd on FGFR1 and at FGFR3 was 1 to 50 nM in each case.
As to `C=CCC1(N)CN(c2ccc(-c3n[nH]c4ccc(O[C@H](C)c5c(Cl)cncc5Cl)cc34)nn2)C1` [Example 274, (R)-3-allyl-1-(6-(5-(1-(3,5-dichloropyridin-4-yl)ethoxy)-1H-indazol-3-yl)pyridazin-3-yl)azetidin-3-amine], the IC50 fell in the range of 0.0001 to 0.05 µM in test [1], 0.0001 to 0.05 µM in test [2], 0.05 to 0.2 µM in test [3] and 0.2 to 1 µM in test [4]. For the same molecule, the dissociation constant (Kd) on FGFR1 and on FGFR3 was 1 to 50 nM each time.

The values above are taken from patent US20250368666A1, “INDAZOLE COMPOUNDS” (TYRA BIOSCIENCES, INC., priority 2022, published 2025).
